Tests used:
[1] = Stability in human serum by MALDI mass spectrometry; format: in vitro ADME; details: 100% serum, 2 h at 37° C.
Procedure: Both compounds (100 μM, 100 μl ) were incubated in an equivalent volume of human serum at 37° C. for 2 h. In all cases, enzymatic reactions were quenched by the addition of trifluoroacetic acid (0.1% v/v final concentration). Samples were immediately analyzed using Matrix Assisted […] Desorption Ionisation-Time Of Flight (MALDI-TOF) mass spectrometry. A Micromass MALDI-TOF (Micromass, Beverly, Mass.) reflectron instrument was used at a laser energy of 15-25% over a mass range of 1000-6000 Da, with 5 laser shots summed per spectrum. Alpha-cyano-4-hydroxycinnamicacid (Sigma, St. Louis, Mo.) was used as a matrix and was prepared to a concentration of 10 mg/ml in a 8 mg/ml ammonium carbonate (Sigma, St. Louis, Mo.) buffer. One microlitre samples were diluted 50/50 v/v with matrix before being transferred to the MALDI plate.

[2] = test system: Aβ1-40; experiment: Aβ1-40 sandwich ELISA of PC12 conditioned media; format: cell-based, rat; details: PC12 cells, relative to control cells
[3] = test system: PC12 cells; experiment: Neurite outgrowth in PC12 cells; format: cell-based, rat; details: low serum medium
Procedure: Three dishes for each treatment condition were prepared. Treatments began 24 hours after seeding, once cells were well attached.
PC12 cells were grown on 60 mm dishes as above and cultured for four days. During this time neurite outgrowth was quantified daily. Five random fields of cells were evaluated per dish and the proportion of neurite-bearing cells was determined. Approximately 100 cells per field were scored for neurites equal to or greater in length than that of the cell body. A cell was only scored once, although it may have had more than one process per cell.

[4] = test system: synaptophysin; experiment: Synaptophysin expression in PC12 cells (Western blot); format: cell-based, rat; details: PC12 cell lysates, relative to untreated
Procedure: The synaptophysin monoclonal antibody (Oncogene Research Products, San Diego Calif.), which stains neurosecretory vesicles of PC12 cells, was used. The membranes were blocked with 20 mM Tris, 500 mM NaCl pH 7.4, 1% (w/v) casein (BioRad, San Diego Calif.) at 37° C. for 1 hour. Primary antibody was diluted in block and incubated with the proteins overnight at 4° C. The membrane was vigorously washed with 20 mM Tris pH 7.4, 150 mM NaCl and 0.05% Tween-20 (TBST), three times for 15 minutes at room temperature. The peroxidase-linked secondary antibody in block was incubated with the membrane for 2 hours at room temperature. Peroxidase-linked anti-mouse IgM (Chemicon, Tenecula, Calif.) was used as the secondary antibody against synaptophysin. Excess antibody was washed off with three vigorous washes in TBST prior to incubation in ECL Plus (Amersham, Philadelphia, Pa.) for 5 minutes. The membrane was subsequently exposed to photographic film.

[5] = test system: Beta-2/NeuroD; experiment: Beta-2/NeuroD expression in PC12 cells (Western blot); format: cell-based, rat; details: PC12 cell lysates
Source text: Beta-2/NeuroD plays a major role in both neuronal and pancreatic endocrine development. […] Beta-2 expression in pancreatic endocrine cells, the intestine and the brain, activates insulin gene transcription and can induce neurons to differentiate. Mutant mice lacking the functional Beta-2 gene have a striking reduction in the number of insulin-producing beta cells, fail to develop mature islets and as a consequence develop severe diabetes often resulting in perinatal death (Naya et al 1997). Thus, Beta-2/NeuroD is essential for in vivo pancreatic development and neuronal differentiation.
NeuroD production was determined by Western blot analysis using anti-NeuroD antibody as described above for synaptophysin antibody, except peroxidase-linked anti-goat IgG (Santa Cruz Biotechnology Inc.) was used as the secondary antibody. […] Indeed, Noma et al (1999) have shown that overexpression of NeuroD in transfected PC12 cells induced morphological changes such as neurite-like processes and synapse-like structures, without a differentiating-inducing agent such as NGF.

[6] = test system: cultured hippocampal neurons; experiment: Glutamate-induced apoptotic cell death in hippocampal neurons (Hoechst 33342); format: cell-based, rat; details: GLP-1 10 nM
Procedure: The fluorescent DNA binding dye Hoescht 33342 was used to measure apoptotic cell death. […] Cells were fixed in a solution of 4% paraformaldehyde in PBS and membranes were permeabilized with 0.2% Trition X-100. Following incubation with Hoechst 33342 (1 μM) for 30 min, nuclei were visualized under epifluorescence illumination (340 nm excitation, 510 nm barrier filter) using a 40× oil-immersion objective. Approximately 200 cells were counted in at least three separate dishes for each treatment condition, and experiments were repeated at least twice. Cells were considered apoptotic if nuclear DNA was fragmented or condensed, whereas cells with nuclear DNA of a more diffuse and uniform distribution, were considered viable. At the time of counting, the investigator was unaware of the identity of the treatment groups. The percentage of cells with condensed or fragmented nuclei was determined in each culture.

[7] = test system: Aβ1-40; experiment: Aβ1-40 in whole brain homogenates after i.c.v. infusion in control mice; format: in vivo, mouse; details: 48 h
Procedure: Lean db+/db+ control male mice (n=24) were anaesthetized with 50 mg/kg pentobarbitone and placed in a stereotaxic surgical frame with mouse adaptor (David Kopf Instruments, Tujunga, Calif.) using temporal bone cup holders. […] After 48 h all animals were sacrificed by cervical dislocation, the brains removed and rapidly frozen in liquid nitrogen. Brains were pulverized and stored at −80° C. prior to assaying for Aβ levels.
Equivalent volumes of conditioned media and whole brain homogenate were assayed for Aβ1-40 using a sandwich ELISA (Suzuki et. al., 1994). The monoclonal antibody BAN50 (raised against Aβ1-16) was used as the capture antibody for all species of Aβ (Aβ1-40 and Aβ1-42), and the monoclonal antibody BA27 was used to specifically detect Aβ1-40 levels. Levels of Aβ1-40 were expressed in pM concentrations for conditioned media samples and finol/g for the mouse brain homogenates, as deduced from the appropriate standard curve run in parallel with the assay.

[8] = test system: cultured hippocampal cells; experiment: Survival of hippocampal neurons exposed to Aβ1-42 or Fe2+; format: cell-based, rat; details: 2 h pretreatment, then 2 μM Aβ (1-42) or 1 μM Fe2+ for 24 hours
Procedure: Hippocampi were removed from embryonic day 18 Sprague-Dawley rats, and cells were dissociated by mild trypsination and trituration and seeded onto polyethyleneimine-coated plastic 35 mm diameter dishes at a density of approximately 150 cells/mm^2 of culture surface. Cultures-were maintained in Neurobasal medium containing B-27 supplements (Gibco BRL, Carlsbad, Calif.), 2 mM L-glutamine, 1 mM Hepes and 0.001% gentamicin sulfate (Sigma, St. Louis, Mo.) in a 6% CO2/94% room air atmosphere at 37° C. When maintained under these conditions, the hippocampal cultures consisted of approximately 95% neurons and 5% astrocytes as determined by immunostaining with antibodies against the neuronal antigen NeuN and the astrocyte protein glial fibrillary acidic protein. Aβ1-42 was purchased from Bachem (Torrance, Calif.) and was prepared as a 1 mM stock solution in sterile water. FeSO4 was prepared as a 200 μM stock in sterile water.
Neuronal survival was quantified as described previously (Mark et. al., 1997). Briefly, viable neurons in premarked fields (10× objective) were counted before experimental treatment and at specified time points thereafter. […] Cultures were then exposed to 2 μM Aβ (1-42) or 1 μM Fe^2+ for 24 hours. […]

[9] = test system: Fischer-344 rats; experiment: Ibotenic acid induced cholinergic marker deficit, i.c.v. infusion
[10] = test system: β-amyloid precursor protein (βAPP); experiment: Western immunoblot of βAPP (cell lysates) and sAPP (conditioned media) in PC12 cells; details: day 3, relative to untreated

In the case of `CC[C@H](C)[C@H](NC(=O)[C@H](Cc1ccccc1)NC(=O)[C@H](CCC(=O)O)NC(=O)[C@H](CCCCN)NC(=O)[C@H](C)NC(=O)[C@H](C)NC(=O)[C@H](CCC(N)=O)NC(=O)CNC(=O)[C@H](CCC(=O)O)NC(=O)[C@H](CC(C)C)NC(=O)[C@H](Cc1ccc(O)cc1)NC(=O)[C@H](CO)NC(=O)[C@H](CO)NC(=O)[C@@H](NC(=O)[C@H](CC(=O)O)NC(=O)[C@H](CO)NC(=O)[C@@H](NC(=O)[C@H](Cc1ccccc1)NC(=O)[C@@H](NC(=O)CNC(=O)[C@H](CCC(=O)O)NC(=O)[C@H](C)NC(=O)[C@@H](N)Cc1c[nH]cn1)[C@@H](C)O)[C@@H](C)O)C(C)C)C(=O)N[C@@H](C)C(=O)N[C@@H](Cc1c[nH]c2ccccc12)C(=O)N[C@@H](CC(C)C)C(=O)N[C@H](C(=O)N[C@@H](CCCCN)C(=O)NCC(=O)N[C@@H](CCCNC(=N)N)C(N)=O)C(C)C` [GLP-1, glucagon-like peptide-1], the “stability in human serum (N-terminal truncated product by MALDI)” value [1] is reported as “considerable increase in the amount of N-terminal truncated product”, the “Aβ1-40 levels in conditioned media” value [2] is reported as “did not significantly alter levels of Aβ1-40 production” and the “differentiation / neurite outgrowth” value [3] is reported as “produced similar effects on differentiation to those induced by NGF”. The synaptophysin expression [4] was “dramatically reduced the expression of the synaptophysin protein”, the “Beta-2/NeuroD expression (43 kDa band)” value [5] was “increased following GLP-1 treatment” and the “apoptotic cells, concurrent treatment with glutamate” value ([6]; 10 μM glutamate overnight, exendin-4 0.3 μM (medium alone 23%, glutamate 73%)) was 24%. For the same molecule, the “protection against apoptotic effects of glutamate” value ([6]; 10 μM glutamate, exendin-4 0.3 μM) was “completely protected”, the “apoptotic cells, peptide alone” value ([6]; exendin-4 0.3 μM, no glutamate) was 20% and the “reduction of Aβ1-40 levels compared to vehicle” value ([7]; 3.3 μg GLP-1 i.c.v., not significant) was 16%. The “reduction of Aβ1-40 levels compared to vehicle” value ([7]; 6.6 μg GLP-1 i.c.v., p<0.01) was 36%, the “concentration of maximum protective effect against death induced by Aβ1-42 and Fe2+” value [8] was 10 nM and the “Abercrombie corrected ChAT-positive cell counts, Left basal nucleus (lesion side)” value ([9]; Lesion (ibotenic acid)) was 404 ± 59. The “Abercrombie corrected ChAT-positive cell counts, Right basal nucleus (infusion side)” value ([9]; Lesion (ibotenic acid)) was 423 ± 45, the “Abercrombie corrected ChAT-positive cell counts, Left basal nucleus (lesion side)” value ([9]; Sham) was 517 ± 50 and the “Abercrombie corrected ChAT-positive cell counts, Right basal nucleus (infusion side)” value ([9]; Sham) was 499 ± 41. For the same molecule, the “food and water intake, body weight during infusion” value ([9]; i.c.v. minipump infusion) was “modestly aphagic and adipsic”, the “loss of ChAT-immunoreactive cell bodies in left basal nucleus below that of the right basal nucleus” value ([9]; ibotenic acid lesion, 14 days i.c.v. infusion (vehicle 43%)) was 6% and the “intracellular levels of βAPP (cell lysates)” value [10] was “significantly decreased intracellular levels of βAPP”.

Source: patent US10941187B2 (The United States of America, as represented by the …, priority 2001, dated 2021)
